From article PMC10785756, “Hydrolysis of Antimicrobial Peptides by Extracellular Peptidases in Wastewater” (Environmental Science & Technology, 2023)
Read-outs that look alike come from different tables or passages of the source. Peptide text beside a SMILES is read from it.

How the values were obtained:
[1] = test system: extracellular wastewater peptidases (pool I extracts from WWTP influents); test: Absolute quantification of transformation products (TPs) formed during AMP incubation with wastewater extracts; type: in vitro ADME
Method: We thawed enzyme extracts and transferred 1.35 mL to 2 mL protein LoBind Eppendorf tubes. For autoclaved controls, extract aliquots of 1.5 mL were autoclaved for 20 min at 121 °C and 2 bar (Wolf Sanoclav LaS-MCS-J) and 1.35 mL of the autoclaved extracts were transferred into 2 mL protein LoBind Eppendorf tubes. We then spiked 150 μL of the AMP stock solution containing all AMPs at 10 μg/mL to the enzyme extracts or 1.35 mL of ultrapure water. […] Triplicate incubations were conducted for the autoclaved and active extracts with spiked AMP. After AMP spiking, we mixed the solutions by inverting the vials and incubating them at 20 °C under horizontal shaking at 300 rpm. To stop enzymatic reactions at pre-defined sampling time points (i.e., 2 min, 30 min, 1 h, 2 h, and 4 h), we transferred 150 μL of the incubation solution to 450 μL of acetonitrile containing 1% (v/v) formic acid in 1.5 mL protein LoBind Eppendorf tubes, mixed the resulting solution by inverting the tube and by horizontally shaking it at 300 rpm for 2 min at 20 °C, and centrifuged samples at 16,000g for 1 min. This protocol step was conducted according to Luther et al.[9] We then transferred the supernatant into a fresh 1.5 mL protein LoBind Eppendorf tube and dried it in a SpeedVac vacuum concentrator (30 °C for approximately 6 h). To resolubilize AMPs, we added 150 μL of water containing 5% (v/v) acetonitrile and 0.1% (v/v) formic acid, vortexed the samples, and centrifuged them for 10 s at 1000g at room temperature. We transferred the solution into QuanRecovery HPLC vials (Waters, 186009186) and stored the samples at −20 °C until analysis. For method development, selected (and indicated) samples were sonicated (Sonorex Super RK 106, Bandelin, max 480 W) for 5 min at different steps of the sample preparation process.
We analyzed AMPs using UHPLC (Thermo Scientific Dionex Ultimate 3000) equipped with a Waters XSelect PREMIER CSH C18 column (article number: 186009870) coupled to HRMS (Thermo QExactive). […] We used Skyline (version 20.2.0.343) to analyze the raw data. Criteria for parent peptides and hydrolysis product identification were set as described before:[31]m/z deviation <2 ppm, MS/MS fragments with m/z deviation <5 ppm, and reasonable chromatographic peak shape. For products, the peak area had to either increase throughout the incubation experiment or first increase and then decrease.
To learn about the enzymatic hydrolysis pathways of AMPs that we found to be rapidly biotransformed by enzymes in wastewater extracts, we predicted all products of single peptide bond hydrolysis reactions and screened our data-dependent high-resolution mass spectrometry data for experimental evidence in support of the predicted hydrolysis products. These analyses were conducted for the AMPs with the highest biotransformation extents (i.e., >0.5 in at least two WWTPs), namely, cecropin P1, omiganan, and R8. The following requirements for transformation products (TPs) were defined: at least three amino acids, peak area either increases during the incubation experiment or first increases and then decreases, peak area exceeds that in AMP-free enzyme extract by >5-fold and that in spiked autoclaved extracts by >6-fold, and mass deviation <2 ppm from the calculated exact mass. Mass lists, mass deviations, and retention times of all TPs can be found in Tables S6–S11. We further predicted TPs formed via exocleavage mechanisms (i.e., cleavage of one or two terminal amino acids simultaneously from the C- and N- terminus of the peptide) and screened for these TPs in the HRMS data.
For cecropin P1, we performed absolute quantification for TPs II, III, IV, V, VI, and X and found the highest concentrations for TP III. Up to 8.8% of spiked cecropin P1 is converted to TP III during incubations with wastewater extract. For TP II, the conversion ranges from 3.7–5.7%, and for TP V and VI, conversions range between 1.5 and 4.9 and 2.1 and 2.9%, respectively. […]

[2] = test system: dissolved extracellular wastewater enzymes derived from aeration tanks of WWTPs; settings: cited from earlier work
Method: Our results on daptomycin are consistent with an earlier study that reported daptomycin concentrations to be stable during its incubation with dissolved extracellular wastewater enzymes derived from aeration tanks of WWTPs.[33] We note that daptomycin concentrations in experiments with autoclaved controls were lower compared to active extracts for ...

[3] = test system: extracellular wastewater peptidases (pool I extracts from WWTP influents); test: AMP incubation with active dissolved extracellular wastewater extracts (pool I) from WWTP influents; type: in vitro ADME
Method: We took samples from four municipal WWTPs in Austria ([…], and D). […] Where existing, we sampled the following five stages along the wastewater treatment process: influent, primary clarification tank, high-load and low-load aeration tanks, and effluent. […] We took 2 × 500 mL grab samples at each stage using a plastic beaker. We transferred the samples into 500 mL glass bottles leaving roughly one-third of the bottle empty, transported them to the lab, and pooled duplicate samples for further processing. Enzyme extraction started within 1 h after sampling. For total suspended solid (TSS) determination, we filtered 20 mL of each sample through a preweighed, dry GF/F Whatman glass microfiber filter (Sigma-Aldrich, WHA1825047) using a vacuum filtration system, dried the filters at 105 °C for 2 h, and determined the TSS contents from the weight difference. […] Otherwise, the extraction process was the same for pools I and II. All extractions were performed in triplicate, and extracts were kept on ice until further use. […] Triplicate incubations were conducted for the autoclaved and active extracts with spiked AMP. […] This protocol step was conducted according to Luther et al.[9] We then transferred the supernatant into a fresh 1.5 mL protein LoBind Eppendorf tube and dried it in a SpeedVac vacuum concentrator (30 °C for approximately 6 h). […] We transferred the solution into QuanRecovery HPLC vials (Waters, 186009186) and stored the samples at -20 °C until analysis. For method development, selected (and indicated) samples were sonicated (Sonorex Super RK 106, Bandelin, max 480 W) for 5 min at different steps of the sample preparation process. We analyzed AMPs using UHPLC (Thermo Scientific Dionex Ultimate 3000) equipped with a Waters XSelect PREMIER CSH C18 column (article number: 186009870) coupled to HRMS (Thermo QExactive). We injected 10 μL of each sample and applied a flow rate of 0.4 mL/min using the following eluent gradient (A: ultrapure water, B: […] Detection parameters were chosen as follows: […] We used Skyline (version 20.2.0.343) to analyze the raw data. […] For products, the peak area had to either increase throughout the incubation experiment or first increase and then decrease.

[4] = maximum TP concentration corrected for sorption to the wastewater matrix
[5] = maximum TP concentration during incubation of parent AMP with wastewater extracts, synthetic standards, HPLC-HRMS
[6] = pool I influent extracts, WWTPs A-D, active compared with autoclaved extracts, 20 °C, up to 4 h, HPLC-HRMS, triplicate incubations
[7] = pool I influent extracts, WWTPs A-D, absolute quantification with synthetic peptide standards, HPLC-HRMS, triplicate incubations

Molecule: CC(C)[C@H](NC(=O)[C@H](CCCCN)NC(=O)CNC(=O)[C@H](Cc1ccccc1)NC(=O)[C@@H](NC(=O)[C@H](C)N)C(C)C)C(=O)O [AVFGKV (V)] (H-AVFGKV-OH)
- Potential conc. considering sorption [1, 4]: 30.0 µg/L
- Maximum conc. detected in exp. [1, 5]: 27.5 µg/L

Molecule: daptomycin
- daptomycin concentration during incubation with dissolved extracellular wastewater enzymes [2]: stable
- removal by biotransformation in active wastewater extracts (in words) [3, 6]: did not observe substantial removal

Molecule: CC(C)C[C@H](NC(=O)[C@@H](N)Cc1ccccc1)C(=O)NCC(=O)N[C@@H](CCCCN)C(=O)N[C@H](C(=O)N[C@@H](Cc1ccccc1)C(=O)O)C(C)C [FLGKVF (I)] (H-FLGKVF-OH)
- Potential conc. considering sorption [1, 4]: 101.9 µg/L
- Maximum conc. detected in exp. [1, 5]: 78.3 µg/L
- conversion of spiked parent AMP to the TP during incubation with wastewater extract [1, 7]: Up to 7.8%

Molecule: colistin A
- removal by biotransformation in active wastewater extracts (in words) [3]: biotransformed
- detectable removal during incubation, of the amounts detected at the first time point, in active extracts ([3]; pool I influent extracts, WWTPs A-D, all AMPs spiked together (150 μL of 10 μg/mL into 1.35 mL extract), 20 °C, 300 rpm, sampling 2 min to 4 h, HPLC-HRMS, triplicate incubations, maximum over WWTPs): up to 50%

Molecule: CC(C)[C@H](N)C(=O)N[C@@H](Cc1ccccc1)C(=O)NCC(=O)N[C@@H](CCCCN)C(=O)N[C@H](C(=O)O)C(C)C [VFGKV (VII)] (H-VFGKV-OH)
- Potential conc. considering sorption [1, 4]: 47.1 µg/L
- Maximum conc. detected in exp. [1, 5]: 32.1 µg/L

Molecule: CC(C)C[C@H](NC(=O)[C@H](Cc1c[nH]c2ccccc12)NC(=O)[C@@H](N)CO)C(=O)N[C@@H](CO)C(=O)N[C@@H](CCCCN)C(=O)N[C@H](C(=O)O)[C@@H](C)O [SWLSKT (X)] (H-SWLSKT-OH)
- Potential conc. considering sorption [1, 4]: 3.7 µg/L
- Maximum conc. detected in exp. [1, 5]: 2.9 µg/L
- conversion of spiked parent AMP to the TP during incubation with wastewater extract [1, 7]: less than 1%

Molecule: CC[C@H](C)[C@H](N)C(=O)N[C@@H](CCC(N)=O)C(=O)NCC(=O)NCC(=O)N1CCC[C@H]1C(=O)N[C@@H](CCCNC(=N)N)C(=O)O [IQGGPR (III)] (H-IQGGPR-OH)
- Potential conc. considering sorption [1, 4]: 124.8 µg/L
- Maximum conc. detected in exp. [1, 5]: 87.8 µg/L
- conversion of spiked parent AMP to the TP during incubation with wastewater extract [1, 7]: Up to 8.8%

Molecule: CC(C)C[C@H](NC(=O)[C@H](Cc1c[nH]c2ccccc12)NC(=O)[C@@H](N)CO)C(=O)N[C@@H](CO)C(=O)O [SWLS (II)] (H-SWLS-OH)
- Potential conc. considering sorption [1, 4]: 69.5 µg/L
- Maximum conc. detected in exp. [1, 5]: 57.1 µg/L
- conversion of spiked parent AMP to the TP during incubation with wastewater extract [1, 7]: 3.7–5.7%

Molecule: murepavadin
- removal by biotransformation in active wastewater extracts (in words) [3]: did not observe substantial removal

Molecule: CC(C)C[C@H](NC(=O)[C@@H](N)Cc1ccccc1)C(=O)NCC(=O)O [FLG (IV)] (H-Phe-Leu-Gly-OH)
- Maximum conc. detected in exp. [1]: 22.8 µg/L
- Potential conc. considering sorption [1]: 29.3 µg/L

Molecule: CC(C)C[C@H](NC(=O)[C@H](Cc1c[nH]c2ccccc12)NC(=O)[C@@H](N)CO)C(=O)N[C@@H](CO)C(=O)N[C@@H](CCCCN)C(=O)N[C@H](C(=O)N[C@@H](C)C(=O)O)[C@@H](C)O [SWLSKTA (VI)] (H-SWLSKTA-OH)
- Potential conc. considering sorption [1, 4]: 36.4 µg/L
- Maximum conc. detected in exp. [1, 5]: 28.6 µg/L

Molecule: CC(C)C[C@H](NC(=O)[C@H](Cc1c[nH]c2ccccc12)NC(=O)[C@@H](N)CO)C(=O)O [SWL (IV)] (H-Ser-Trp-Leu-OH)
- Maximum conc. detected in exp. [1]: 2.7 µg/L
- Potential conc. considering sorption [1]: 3.4 µg/L
- conversion of spiked parent AMP to the TP during incubation with wastewater extract [1]: less than 1%

Molecule: colistin B
- removal by biotransformation in active wastewater extracts (in words) [3]: biotransformed

Molecule: omiganan
- biotransformation extent (eq 1, from concentrations in active and autoclaved extracts) [3]: > 0.5
- removal by biotransformation in active wastewater extracts (in words) [3]: rapidly removed to nonquantifiable concentrations

Molecule: CC[C@H](C)[C@H](N)C(=O)N[C@@H](CC(C)C)C(=O)N[C@@H](CCCNC(=N)N)C(=O)N[C@@H](Cc1c[nH]c2ccccc12)C(=O)N1CCC[C@H]1C(=O)N[C@@H](Cc1c[nH]c2ccccc12)C(=O)N[C@@H](Cc1c[nH]c2ccccc12)C(=O)N1CCC[C@H]1C(=O)O [ILRWPWWP (I)] (H-ILRWPWWP-OH)
- Maximum conc. detected in exp. [1]: 6.9 µg/L
- Potential conc. considering sorption [1]: 8.1 µg/L
- conversion of spiked parent AMP to the TP during incubation with wastewater extract [1]: less than 1%

Molecule: CC(C)C[C@H](NC(=O)[C@@H](N)Cc1ccccc1)C(=O)NCC(=O)N[C@@H](CCCCN)C(=O)N[C@H](C(=O)O)C(C)C [FLGKV (II)] (H-FLGKV-OH)
- Potential conc. considering sorption [1, 4]: 19.5 µg/L
- Maximum conc. detected in exp. [1, 5]: 16.5 µg/L

Molecule: bacitracin A
- removal by biotransformation in active wastewater extracts (in words) [3, 6]: did not observe substantial removal

Molecule: CC[C@H](C)[C@H](NC(=O)[C@H](C)N)C(=O)N[C@@H](CCC(N)=O)C(=O)NCC(=O)NCC(=O)N1CCC[C@H]1C(=O)N[C@@H](CCCNC(=N)N)C(=O)O [AIQGGPR (V)] (H-AIQGGPR-OH)
- Potential conc. considering sorption [1, 4]: 78.2 µg/L
- Maximum conc. detected in exp. [1, 5]: 48.6 µg/L
